Assay results taken from PubChem BioAssay (NCI).
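Dose response: 5 concentrations. Exposure: 48 h. Format: 96-well plates. Endpoint: linear interpolation; highest concentration if not reached. TGI: concentration producing complete growth inhibition.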

Tests used:
Experiment in all cases: NCI anticancer screen, dose series, 48 h
[1] = system: OVCAR-8 ovarian
[2] = system: IGROV1 ovarian
[3] = system: M14 melanoma
[4] = system: NCI/ADR-RES ovarian
[5] = system: SF-295 CNS
[6] = system: A549 NSCLC
[7] = system: UO-31 renal
[8] = system: NCI-H226 lung
[9] = system: HCT-15 colon
[10] = system: SK-OV-3 ovarian
[11] = system: HT29 colon
[12] = system: HOP-92 NSCLC
[13] = system: MDA-MB-231 breast
[14] = system: HOP-62 NSCLC
[15] = system: KM12 colon
[16] = system: SK-MEL-28 melanoma
[17] = system: SNB-19 CNS
[18] = system: SW-620 colon
[19] = system: ACHN renal
[20] = system: UACC-257 melanoma
[21] = system: MDA-N
[22] = system: MDA-MB-435
[23] = system: U251 CNS
[24] = system: HCT-116 colon
[25] = system: NCI-H23 lung
[26] = system: BT-549 breast
[27] = system: MOLT-4 leukemia
[28] = system: PC-3 prostate
[29] = system: SNB-75 CNS
[30] = system: SK-MEL-2 melanoma
[31] = system: 786-0 renal
[32] = system: MCF7 breast
[33] = system: SF-539 CNS
[34] = system: DU-145 prostate
[35] = system: OVCAR-5 ovarian
[36] = system: SN12C renal
[37] = system: T-47D breast
[38] = system: TK-10 renal
[39] = system: NCI-H460 lung
[40] = system: SK-MEL-5 melanoma
[41] = system: CAKI-1 renal
[42] = system: EKVX NSCLC
[43] = system: HCC-2998 colon
[44] = system: LOX IMVI melanoma
[45] = system: OVCAR-3 ovarian
[46] = system: COLO 205 colon
[47] = system: OVCAR-4 ovarian
[48] = system: RXF 393 renal
[49] = system: HS 578T breast
[50] = system: MALME-3M melanoma
[51] = system: RPMI-8226 leukemia
[52] = system: UACC-62 melanoma
[53] = system: K-562 leukemia
[54] = system: SF-268 CNS
[55] = system: NCI-H522 lung
[56] = system: A498 renal
[57] = system: CCRF-CEM leukemia
[58] = system: SR leukemia
[59] = system: HL-60(TB) leukemia

Measured: TGI

O=C1NC(=O)/C(=C\c2ccncc2)N1
not listed: [48] | [49] | [50] | [51] | [52] | [53] | [54] | [55] | [56] | [57] | [58] | [59]
> 100 µM: all other assays above

O=C(Cn1c2ccc(Br)cc2c2nc3ccccc3nc21)NC1CCCCC1
not listed: [32] | [33] | [42] | [57] | [58] | [59]
> 100 µM: all other assays above

O=C1c2cc3c(cc2CC12Cc1cc4c(cc1C2)CCC4)CCC3
not listed: [8] | [26] | [52]
> 100 µM: all other assays above

O=C1c2ccccc2-c2cc3ccccc3c(=O)n21
not listed: [8] | [10] | [12] | [13] | [14] | [23] | [26] | [27] | [41] | [47] | [48] | [50] | [56] | [59]
> 100 µM: all other assays above
